Values joined by “and” are separate entries in the source; they are usually repeats but may differ in a detail not shown here. Equal values may be shown once. Read-outs that look alike come from different tables or passages of the source.
Experiments:
[1] = target: T1, human TPST2 (Homo sapiens, UniProt O60704); assay: Differential scanning fluorimetry (thermal shift) assay with TPST2; type: binding; settings: DSF, TPST2 5 µM; for Thermal shift of TPST2 in the presence of Mg2+ ions (in words): 0.5 mM nucleotide + 10 mM MgCl2; for Thermal shift of TPST2 (in words): 0.5 mM nucleotide, panel of nucleotide-based cofactors
T1 construct: TPST2 (residues Gly43–Leu359) enzymes lacking the transmembrane domains; made in house; host or cells: E. coli BL21 (DE3) pLysS
T1 sequence (O60704 43-359): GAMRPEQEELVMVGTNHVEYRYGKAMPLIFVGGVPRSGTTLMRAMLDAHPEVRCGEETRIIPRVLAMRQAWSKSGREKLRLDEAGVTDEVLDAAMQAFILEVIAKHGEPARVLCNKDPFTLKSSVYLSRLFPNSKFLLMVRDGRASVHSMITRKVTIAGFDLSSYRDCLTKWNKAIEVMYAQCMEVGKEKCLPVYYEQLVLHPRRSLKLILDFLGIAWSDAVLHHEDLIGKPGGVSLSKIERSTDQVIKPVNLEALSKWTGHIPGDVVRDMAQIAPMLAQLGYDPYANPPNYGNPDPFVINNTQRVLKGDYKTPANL

[2] = target: T2, human TPST1 (Homo sapiens, UniProt O60507); assay: Differential scanning fluorimetry (thermal shift) assay with TPST1; type: binding; settings: TPST1 5 µM; for Thermal shift of TPST1 in the presence of Mg2+ ions (in words) / Thermal shift of TPST1 (in words) / ΔTm TPST1: DSF; for Thermal shift of TPST1 in the presence of Mg2+ ions (in words): 0.5 mM nucleotide + 10 mM MgCl2; for Thermal shift of TPST1 (in words) / ΔTm TPST1: 0.5 mM nucleotide; for Thermal shift of TPST1 (in words): panel of nucleotide-based cofactors; for ΔTm TPST1: relative to buffer control
T2 construct: human TPST1 (residues Lys43–Leu360) and TPST2 (residues Gly43–Leu359) enzymes lacking the transmembrane domains; made in house; host or cells: E. coli BL21 (DE3) pLysS
T2 sequence (O60507 43-360): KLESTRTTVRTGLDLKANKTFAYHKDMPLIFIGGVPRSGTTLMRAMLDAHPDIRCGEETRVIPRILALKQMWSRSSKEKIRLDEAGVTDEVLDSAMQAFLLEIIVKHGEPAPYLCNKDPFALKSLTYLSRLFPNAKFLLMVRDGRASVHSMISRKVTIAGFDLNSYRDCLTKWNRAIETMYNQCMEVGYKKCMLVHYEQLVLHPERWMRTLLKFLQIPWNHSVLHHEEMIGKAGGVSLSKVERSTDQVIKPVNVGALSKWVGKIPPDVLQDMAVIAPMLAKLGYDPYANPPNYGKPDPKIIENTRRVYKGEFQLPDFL

[3] = target: T2, human TPST1; assay: EZ Reader II microfluidic mobility-shift CC4-tide sulfation assay, TPST1; type: biochemical; settings: for IC50 / TPST1 inhibition at 400 μM: 10 µM PAPS; for Sensitivity of TPST1 inhibition to the concentration of PAPS: increasing PAPS, fixed 20 µM PAP or 100 µM ATP, CoA, dephospho-CoA; for TPST1 inhibition at 400 μM: Fig 8A, inhibitor 400 µM; for inhibition at 20 µM: read-out: TPST1 enzyme inhibition, PKIS screen
[4] = tested on: heparin sulfate 2-O sulfotransferase HS2ST; design: method as in PMID 29934491; settings: cited from earlier work
[5] = target: T2, human TPST1; assay: GST-CC4-tide tyrosine sulfation by TPST1, immunoblotting with monoclonal sulfotyrosine antibody; type: biochemical; settings: for Inhibition of GST-CC4-tide tyrosine sulfation by TPST1 (immunoblot, in words): GST-CC4-tide 1 µg, 10 µM PAPS, increasing concentrations of inhibitor
Experimental: After the assay, proteins were denatured in Laemmli sample buffer, heated at 95°C for 5 min and then analysed by SDS–PAGE with 10% (v/v) polyacrylamide gels. Gels were stained and destained using a standard Coomassie Brilliant Blue protocol. To evaluate protein sulfation and phosphorylation by immunoblotting, standard western blotting procedures were followed using monoclonal anti-sulfotyrosine antibody clone Sulfo-1C-A2 (Millipore) generated using a phage display procedure and sulfotyrosine selection peptide antigens in the presence of appropriate positive and negative controls, and modifications visualised using the ECL reagent.

[6] = substrate: Nc1ncnc2c1ncn2C1OC(COP(=O)(O)OS(=O)(=O)O)C(OP(=O)(O)O)C1O; assay: EZ Reader II microfluidic mobility-shift CC4-tide sulfation assay, TPST1; type: biochemical, human; settings: other: CC4-tide 2 µM, TPST1 0.1 µM, four independent experiments; pH 7.4
[7] = Fig 5A, CC4-tide, 0.1 µM TPST1, absence of MgCl2, read-out: IC50 TPST1, panel of nucleotides
[8] = Fig 8B, TPST1 0.1 µM pre-incubated with compound, read-out: TPST1 estimated IC50, RAF kinase inhibitors
[9] = Fig 7C, TPST1 0.1 µM, CC4-tide, 30 min at 37°C, duplicate, read-out: TPST1 estimated IC50, PKIS inhibitors

Nc1ncnc2c1ncn2[C@@H]1O[C@H](COP(=O)(O)OP(=O)(O)O)[C@@H](O)[C@H]1O [ADP, adenosine 5′-diphosphate]
Thermal shift of TPST2 in the presence of Mg2+ ions (in words) [1]: abolished
Thermal shift of TPST2 (in words) [1]: marked stabilisation
Thermal shift of TPST1 in the presence of Mg2+ ions (in words) [2]: abolished
Thermal shift of TPST1 (in words) [2]: marked stabilisation

Nc1ncnc2c1ncn2[C@@H]1O[C@H](COP(=O)(O)O)[C@@H](O)[C@H]1O [AMP, adenosine 5′-monophosphate]
Thermal shift of TPST2 (in words) [1]: lack of significant thermal shift
Thermal shift of TPST1 (in words) [2]: lack of significant thermal shift

Nc1ncnc2c1ncn2[C@@H]1O[C@H](COP(=O)(O)OP(=O)(O)OP(=O)(O)O)[C@@H](O)[C@H]1O [ATP, adenosine 5′-triphosphate]
IC50 [3, 7]: 379 µM

O=C(O)C1=CC(=C(c2ccc(O)c(C(=O)O)c2)c2ccc(O)c(C(=O)O)c2)C=CC1=O [Aurintricarboxylic acid, aurintricarboxylic acid]
HS2ST inhibition in vitro (in words) [4]: inhibitory activity

CC(C)(COP(=O)(O)OP(=O)(O)OC[C@H]1O[C@@H](n2cnc3c(N)ncnc32)[C@H](O)[C@@H]1OP(=O)(O)O)[C@@H](O)C(=O)NCCC(=O)NCCS [CoA, coenzyme A]
Sensitivity of TPST1 inhibition to the concentration of PAPS ([3]; CC4-tide): highly sensitive
IC50 [3, 7]: 87 µM and 87.3 µM
Thermal shift of TPST2 (in words) [1]: marked stabilisation
Thermal shift of TPST1 (in words) [2]: marked stabilisation
ΔTm TPST1 [2]: ~11 °C

CC(C)(C)c1nc(-c2cccc(NS(=O)(=O)c3c(F)cccc3F)c2F)c(-c2ccnc(N)n2)s1 [Dabrafenib, dabrafenib]
TPST1 inhibition at 400 μM ([3]; TPST1 0.1 µM, duplicate): essentially complete TPST1 inhibition
IC50 [3, 8]: 269 µM

Nc1nc2c(ncn2[C@@H]2O[C@H](COP(=O)(O)OP(=O)(O)OP(=O)(O)O)[C@@H](O)[C@H]2O)c(=O)[nH]1 [GTP, guanosine 5′-triphosphate]
Thermal shift of TPST2 in the presence of Mg2+ ions (in words) [1]: abolished
Thermal shift of TPST2 (in words) [1]: marked stabilisation
Thermal shift of TPST1 in the presence of Mg2+ ions (in words) [2]: abolished
Thermal shift of TPST1 (in words) [2]: marked stabilisation

O=C1Nc2ccc(I)cc2C1=Cc1cc(Br)c(O)c(Br)c1 [GW305074X]
IC50 [3, 9]: ~5 µM
Inhibition of GST-CC4-tide tyrosine sulfation by TPST1 (immunoblot, in words) [5]: low-micromolar inhibitor

COC(=O)c1ccc2c(c1)C(=Cc1cc(Br)c(O)c(Br)c1)C(=O)N2 [GW405841X]
IC50 [3, 9]: > 40 µM

O=C1Nc2ccc(C(=O)c3ccco3)cc2C1=Cc1cc(Cl)c(O)c(Cl)c1 [GW406108X]
IC50 [3, 9]: 16 µM
TPST1 DSF screen of PKIS, rank of hit ([2]; 20 µM compound, 4% DMSO, hit cut-off ΔTm ± 0.5°C): top compound

Nc1nc(-c2ccc3c(c2)C(=Cc2cc(Br)c(O)c(Br)c2)C(=O)N3)cs1 [GW407323A]
IC50 [3, 9]: 6 µM

O=C1Nc2ccc(-c3cccnc3)cc2C1=Cc1cc(Br)c(O)c(Br)c1 [GW429374A]
IC50 [3, 9]: 9.8 µM

CNC(=O)c1cncc(/C=C/c2ccccc2C)c1 [GW445015X]
inhibition at 20 µM [3]: > 40%

CNC(=O)c1cncc(/C=C/c2ccccc2Cl)c1 [GW445017X]
inhibition at 20 µM [3]: > 40%

Cc1cc(-c2ccco2)cc(C)c1/C=C/c1cncc(-c2nn[nH]n2)c1 [GW458344A]
inhibition at 20 µM [3]: > 40%

Nc1ncnc2c1ncn2C1OC(COP(=O)(O)O)C(OP(=O)(O)O)C1O (stereo not drawn) [PAP, adenosine 3′–5′-diphosphate]
Sensitivity of TPST1 inhibition to the concentration of PAPS ([3]; CC4-tide): highly sensitive
IC50 [3, 7]: 1.5 µM
Thermal shift of TPST2 (in words) [1]: marked stabilisation
Thermal shift of TPST1 (in words) [2]: marked stabilisation
ΔTm TPST1 [2]: ~10 °C

CCCS(=O)(=O)Nc1ccc(F)c(C(=O)c2c[nH]c3ncc(Cl)cc23)c1F [PLX-4720]
IC50 [3, 8]: > 400 µM

Cn1c(Nc2ccc(C(F)(F)F)cc2)nc2cc(Oc3ccnc(-c4ncc(C(F)(F)F)[nH]4)c3)ccc21 [RAF265]
TPST1 inhibition at 400 μM ([3]; TPST1 0.1 µM, duplicate): essentially complete TPST1 inhibition
IC50 [3, 8]: 6.5 µM
Inhibition of GST-CC4-tide tyrosine sulfation by TPST1 (immunoblot, in words) [5]: dose-dependent inhibition
Mode of TPST1 inhibition with respect to PAPS (immunoblot densitometry) ([5]; GST-CC4-tide, increasing PAPS concentration): partially competitive mode of inhibition with PAPS
HS2ST inhibition in vitro (in words) [4]: did not inhibit HS2ST at any concentration tested

CNC(=O)c1cc(Oc2ccc(NC(=O)Nc3ccc(Cl)c(C(F)(F)F)c3)cc2)ccn1 [Sorafenib, sorafenib]
TPST1 inhibition at 400 μM ([3]; TPST1 0.1 µM, duplicate): essentially complete TPST1 inhibition
IC50 [3, 8]: 119 µM

Cc1ccc(C(=O)Nc2ccc(S(=O)(=O)O)c3cc(S(=O)(=O)O)cc(S(=O)(=O)O)c23)cc1NC(=O)c1cccc(NC(=O)Nc2cccc(C(=O)Nc3cc(C(=O)Nc4ccc(S(=O)(=O)O)c5cc(S(=O)(=O)O)cc(S(=O)(=O)O)c45)ccc3C)c2)c1 [Suramin, suramin]
HS2ST inhibition in vitro (in words) [4]: inhibitory activity

CCCS(=O)(=O)Nc1ccc(F)c(C(=O)c2c[nH]c3ncc(-c4ccc(Cl)cc4)cc23)c1F [Vemurafenib, vemurafenib]
TPST1 inhibition at 400 μM ([3]; TPST1 0.1 µM, duplicate): essentially complete TPST1 inhibition
IC50 [3, 8]: 42.9 µM and ~40 µM

Cc1ccc(NC(=O)c2cccc(N(C)C)c2)cc1NC(=O)c1ccc(O)cc1 [ZM336372]
TPST1 inhibition at 400 μM ([3]; TPST1 0.1 µM, duplicate): essentially complete TPST1 inhibition
IC50 [3, 8]: 253 µM

CC(=O)SCCNC(=O)CCNC(=O)[C@H](O)C(C)(C)COP(=O)(O)OP(=O)(O)OC[C@H]1O[C@@H](n2cnc3c(N)ncnc32)[C@H](O)[C@@H]1OP(=O)(O)O [acetyl CoA]
Thermal shift of TPST2 (in words) [1]: marked stabilisation
Thermal shift of TPST1 (in words) [2]: marked stabilisation

CC(C)(COP(=O)(O)OP(=O)(O)OC[C@H]1O[C@@H](n2cnc3c(N)ncnc32)[C@H](O)[C@@H]1O)[C@@H](O)C(=O)NCCC(=O)NCCS [dephospho-CoA, 3′-dephosphoCoA]
Sensitivity of TPST1 inhibition to the concentration of PAPS ([3]; CC4-tide): largely insensitive
IC50 [3, 7]: 166 µM
Thermal shift of TPST2 (in words) [1]: unable to induce thermal shifts
Thermal shift of TPST1 (in words) [2]: unable to induce thermal shifts

B1: human TPST1 (Homo sapiens) (protein)
chain: KLESTRTTVRTGLDLKANKTFAYHKDMPLIFIGGVPRSGTTLMRAMLDAHPDIRCGEETRVIPRILALKQMWSRSSKEKIRLDEAGVTDEVLDSAMQAFLLEIIVKHGEPAPYLCNKDPFALKSLTYLSRLFPNAKFLLMVRDGRASVHSMISRKVTIAGFDLNSYRDCLTKWNRAIETMYNQCMEVGYKKCMLVHYEQLVLHPERWMRTLLKFLQIPWNHSVLHHEEMIGKAGGVSLSKVERSTDQVIKPVNVGALSKWVGKIPPDVLQDMAVIAPMLAKLGYDPYANPPNYGKPDPKIIENTRRVYKGEFQLPDFL
notes: human TPST1 (residues Lys43–Leu360) and TPST2 (residues Gly43–Leu359) enzymes lacking the transmembrane domains; made in house; host or cells: E. coli BL21 (DE3) pLysS
Km [6]: 6.6 ± 1.9 µM
